From US20140066365A1, “USE OF CALIXARENES ASSOCIATED WITH AN ANTIBIOTIC IN THE TREATMENT OF BACTERIAL INFECTIONS” (priority 2011, published 2014)
Converted amounts (≈) assume the structure as drawn. Like-named read-outs stand apart in the source and are kept apart here.

How the values were obtained:
Format in all cases: cell-based
[1] = tested on: SaR3: Meticillin-Resistant Staphylococcus aureus; experiment: Antibiogram by the disk diffusion technique; settings: for Diameter: Table E1; for Results: Table E1, against Dmin Dmax; for diameter in mm: Table E2
Protocol: (§1) The bacterial and antibiogramidentification is carried out by the VITEK 2 system (bioMérieux) and by the disk diffusion technique

[2] = tested on: SaR1: Meticillin-Resistant Staphylococcus aureus without Associated Resistance; experiment: Antibiogram, inhibition diameter (Table D1); settings: for Results: from diameter, against Dmin Dmax
Protocol: (§2) The bacterial and antibiogramidentification is carried out by the VITEK 2 system (bioMérieux)

[3] = tested on: SaR4: Meticillin-Resistant Staphylococcus aureus; experiment: Antibiogram, MIC by the VITEK 2 system; settings: SaR4; for MIC: Staphylococcus aureus, read-out: MIC
Protocol: as §1

[4] = tested on: Escherichia coli strain ATCC 25922 (wild type); experiment: MIC of the compounds used alone, microdilution in a liquid medium (CLSI); settings: Escherichia coli, ATCC25922; antibiotic alone (second value of cell); E. coli ATCC 25922; read-out: Initial MICs
Description: (§3) The MICs of the antibiotics were previously defined for each strain, by the method of microdilution in a liquid medium (CLSI (Clinical and Laboratory Standards Institute), 2003).

[5] = tested on: penicillinase-producing strain of Escherichia coli without associated resistance (EcR1); experiment: as above; settings: Escherichia coli, antibiotic alone (second value of cell), read-out: Initial MICs
Description: as §3

[6] = tested on: cephalosporinase-hyperproducing strain of Escherichia coli (EcR2); experiment: as above; settings: Escherichia coli, antibiotic alone (second value of cell), read-out: Initial MICs
Description: as §3

[7] = tested on: ESBL-producing strain of Escherichia coli, having an associated resistance to the aminoglycosides (EcR3); experiment: as above; settings: Escherichia coli, antibiotic alone (second value of cell), read-out: Initial MICs
Description: as §3

[8] = tested on: SaR4: Meticillin-Resistant Staphylococcus aureus; experiment: Antibiogram by the disk diffusion technique
Protocol: as §1

[9] = tested on: SaR1: Meticillin-Resistant Staphylococcus aureus without Associated Resistance; experiment: Antibiogram, MIC by the VITEK 2 system; settings: SaR1; for MIC mg/L: Table D2; for MIC: Staphylococcus aureus, read-out: MIC
Protocol: as §2

[10] = tested on: PaR5: Pseudomonas aeruginosa; experiment: Antibiogram by the disk diffusion technique
Protocol: as §1

[11] = tested on: PaR3: Pseudomonas aeruginosa; experiment: Antibiogram, MIC by the VITEK 2 system
Protocol: as §2

[12] = tested on: EcR3: ESBL-Producing Escherichia coli; experiment: Antibiogram by the disk diffusion technique
Protocol: The bacterial and antibiogramidentification is carried out by the VITEK 2 system (bioMerieux) and by the disk diffusion technique

[13] = tested on: EcR1: Penicillinase-Producing Escherichia coli without Associated Resistance; experiment: Antibiogram by the disk diffusion technique
Protocol: 5.1 EcR1: Penicillinase-Producing Escherichia coli without Associated Resistance The bacterial and antibiogramidentification is carried out by the VITEK 2 system (bioMérieux) and by the disk diffusion technique.

[14] = tested on: PaR2: Pseudomonas aeruginosa
Protocol: as §1

Compound | MIC ([3]; Table F1) [µg/mL] | MIC mg/L [9] | MIC ([9]; Table D1) [µg/mL] | MIC ([3]; Table F2, MIC) [µg/mL] | Diameter [1] [mm] | Results [1] | Diameter [2] [mm] | Results [2] | Results ([3]; Table F1, MIC) | diameter in mm [1] [mm] | also measured
O=C(N[C@H](CO)[C@H](O)c1ccc([N+](=O)[O-])cc1)C(Cl)Cl [Chloramphenicol] | 8 (≈ 24.8 µM) | – | – | – | 6 | Resistant | 25 | Susceptible | Susceptible | – | –
C[C@@H](O)[C@H]1C(=O)N2C(C(=O)O)=C(S[C@@H]3CN[C@H](C(=O)Nc4cccc(C(=O)O)c4)C3)[C@H](C)[C@H]12 [Ertapenem] | – | – | – | – | – | – | – | – | – | – | MIC [4]: 0.015 µg/mL; MIC [5]: 0.015 µg/mL; MIC [6]: 0.03 µg/mL; MIC [7]: 0.0015 µg/mL
CN(C)c1ccc(O)c2c1C[C@H]1C[C@H]3[C@H](N(C)C)C(O)=C(C(N)=O)C(=O)[C@@]3(O)C(O)=C1C2=O [Minocycline] | ≤ 4 | ≦0.5 mg/L | ≤ 0.5 | ≤ 0.5 | 26 | – | 27 | – | – | 26 | Diameter ([10]; PaR5, Table I1): 11 mm; diameter in mm ([10]; disk diffusion inhibition diameter, strain PaR5): 11 mm; MIC ([11]; Pseudomonas aeruginosa, Table H2, read-out: MIC): 4 µg/mL (≈ 8.74 µM); MIC ([11]; Table H1): 4 µg/mL (≈ 8.74 µM); Diameter ([12]; Table C1): 21 mm; diameter in mm ([12]; Table C2): 21 mm; MIC mg/L (diameter in mm) ([13]; EcR1, cells that print a diameter, Table A2): 20 mm; Diameter ([13]; EcR1, disk diffusion, Table A1): 20 mm; Diameter ([14]; Table G1): 6 mm; diameter in mm ([14]; Table G2): 6 mm

The next lines start with results.

MIC ([3]; Table F1) [µg/mL] | MIC mg/L [9] | MIC ([9]; Table D1) [µg/mL] | MIC ([3]; Table F2, MIC) [µg/mL] | Compound | Diameter [1] [mm] | Results [1] | Diameter [2] [mm] | Results [2] | Results ([3]; Table F1, MIC) | diameter in mm [1] [mm] | also measured
– | ≦4 mg/L | ≤ 4 | – | NC[C@H]1O[C@H](O[C@H]2[C@H](O)[C@@H](O[C@H]3O[C@H](CO)[C@@H](O)[C@H](N)[C@H]3O)[C@H](N)C[C@@H]2N)[C@H](O)[C@@H](O)[C@@H]1O [Kanamycin] | 6 | – | 20 | – | – | 6 | Diameter ([8]; Table F1): 7; Diameter ([8]; Table F2, diameters): 7 mm
≥ 16 | ≦1 mg/L | ≤ 1 | ≥ 16 | CCC[C@@H]1C[C@@H](C(=O)N[C@@H]([C@H]2O[C@H](SC)[C@H](O)[C@@H](O)[C@H]2O)[C@@H](C)O)N(C)C1 [Lincomycin] | 23 | Susceptible | 24 | Susceptible | Resistant | 23 | CA-SFM Interpretation ([1]; Cd CA-SFM 2011): Susceptible; CA-SFM Interpretation ([9]; Cc CA-SFM 2011): Susceptible; Results ([9]; Table D1, from MIC): Susceptible; CA-SFM Interpretation ([3]; from MIC, Cc CA-SFM 2011): Resistant
